# From patent US20110171134A1, “(6S)-5-METHYLTETRAHYDROFOLIC ACID FOR THERAPY OF TISSUE INJURY” (priority 2008, published 2011)
# Experiments:
# [1] = tested on: dorsal root ganglia (DRG) neurons; conditions: cited from earlier work
# [2] = tested on: dorsal root ganglia (DRG) neurons
# Experimental: The nerve graft provides a supportive environment for axon growth. Removal of the nerve segment injures the peripheral axons of DRG neurons on one side (the “conditioning” lesion), whereas neurons on the opposite side are unaffected by the peripheral injury (“unconditioned”). At 2 weeks, a fluorescent tracer is injected 1 cm into the graft and is transported to the cell bodies of DRG neurons that are able to extend axons into the graft. The fluorescent tracer is taken up in the regenerated neurons only.
# Sixty four adult male Sprague-Dawley rats (200-300 gm) were subjected to surgery under ketamine/xylazine anesthesia, as previously described (FIG. 1.) The cervical cord was exposed through a C3 laminectomy and dural opening. Using a pair of sharp jeweler's forceps, a well-defined 1 mm-deep injury was made in both posterior columns. A sciatic nerve segment harvested from the left hindlimb then was implanted at the injury site using 10-0 nylon sutures in the pia. The other end of the graft was left to lie freely under the skin.
# Two weeks later, 5 μl of the retrograde tracer Fluorogold was placed into the nerve graft at a distance of 1 cm from the spinal cord. […] Rather, it is picked up solely by axons that have grown into the graft and is transported retrogradely in these axons.
# Twenty four hours later, the animal was deeply anesthetized and perfused through the heart with 4% paraformaldehyde. The L5 dorsal root ganglia (DRG) were removed bilaterally, postfixed, incubated in 30% sucrose overnight, and quick frozen in Histo Prep (TM). Sections were cut at 10 μm with a cryostat, floated on pretreated glass slides, and stored at −80° C.
# Animals were treated with intraperitoneal doses of (6S)-5-methyltetrahydrofolic acid ranging from 10 to 800 μg/kg, starting 3 days before the injury and given daily for 2 weeks.
# Dorsal root ganglion sections were examined under a fluorescence microscope and the number of fluorescently labeled cells was counted (see FIG. 1.B). The same sections were then counterstained with cresyl violet to reveal the cell somas of all neurons in the DRG. Fluorescently labeled cells and total cells were counted in treated and control animals by an observer unaware of the treatment conditions. The percentage of labeled DRG cells in each animal was calculated. To determine neuronal numbers accurately, the method of Abercombie was used, in which only cells with visible nucleoli are counted.
# The Wilcoxon rank-sum test and box-and-whiskers plots were used to compare the different groups.
# [3] = regeneration of axons into peripheral nerve grafts after damage to the spinal cord
SMILES,"regeneration observed with folic acid ([1]; mean ± SEM, n=15, Iskandar, Ann Neurol. 2004)","increase in regenerative efficacy (folic acid comparison) [1, 3]","percentage of conditioned DRG neurons that were fluorescently labeled ([2]; 80 ug/kg daily, 3 days before injury to 2 weeks after, with conditioning peripheral nerve lesion, mean ± SEM, n=13)","mean neurons per ganglion regenerating, treatment combined with peripheral injury ([2]; 80 ug/kg, conditioned DRG) [neurons per ganglion]","spinal regeneration, conditioned animals compared with controls, highest dose ([2]; 800 ug/kg, conditioned)","spinal regeneration, unconditioned group, highest dose ([2]; 800 ug/kg, unconditioned)","regeneration in unconditioned DRG in treated animals (FIG. 2) ([2]; 10-400 g/kg as printed, intraperitoneal daily, all treated groups except 800 ug/kg)","mean labeled neurons per ganglion, unconditioned DRG ([2]; 80 N-g/kg intraperitoneal daily, from 3 days before injury for 2 weeks, absence of peripheral nerve injury, n=13)","percentage of labeled unconditioned DRG neurons ([2]; 80 N-g/kg intraperitoneal daily, absence of peripheral nerve injury, mean ± SEM, n=13)","regeneration of conditioned DRG at doses higher or lower than 80 ug/kg ([2]; conditioned, compared with the 80 ug/kg dose)","axons per ganglion regenerating, treatment without peripheral nerve injury ([2]; optimal dose of 80 ug/kg, unconditioned)","increase in regenerative efficacy [2, 3] [%]"
Nc1nc2ncc(CNc3ccc(C(=O)N[C@@H](CCC(=O)O)C(=O)O)cc3)nc2c(=O)[nH]1 [folic acid],16.26%±1.12,approximately 16%,–,–,–,–,–,–,–,–,–,–
CN1c2c(nc(N)[nH]c2=O)NC[C@@H]1CNc1ccc(C(=O)N[C@@H](CCC(=O)O)C(=O)O)cc1 [(6S)-5-methyltetrahydrofolic acid],–,–,30.68%±2.97,980,decreased regeneration,no evidence of spinal regeneration,Measurable regeneration,320 labeled neurons per ganglion,10.25%±2.30,less effective,approximately 319 axons per ganglion,≥ 30
